Common to all, as to type: cell-based
Assay [1] concerns beneficial oral bacteria and pathogenic oral bacteria. Description: Metabolic activity, prebiotic effect over the whole panel. As to conditions: threshold value of 2. On the procedure:
(§1) The extent of metabolic activity of the tested bacteria in the presence of the above-mentioned acids after 24 hours and 48 hours was investigated through a high throughput phenotype microarray system (PM) for microbial cells (Biolog Inc.). Each PM can contain up to 95 different biochemical compounds (e.g. organic acids) that may act as substrates for bacteria as well as one negative control, not containing the substrates. Microarray plates were used in which the different wells of each plate were pre-loaded (by the manufacturer, Biolog Inc.) with different organic acids to be tested. Each bacterial species was tested using a separate microarray plate. Thus, a single bacterial species was tested with a variety of organic acids on each particular plate. The microarrays are based on redox technology, using cell respiration as a universal reporter. […] The observation of this color change indicates which of the substrates improve the metabolic activity and health of the cells.
(§2) Each bacterial species was collected from blood agar plates (incubated for 48 hours anaerobically at 37° C.) and transferred to an IF-0 Base inoculation fluid (Biolog Inc.), which is a nutritionally poor medium. […] A 1:5 dilution of this suspension was prepared by mixing 3 mL of the 42% transmittance cell suspension with 15 mL of an inoculation fluid (which inoculation fluid was formed by mixing 11.6 mL sterile water, 62.5 mL IF-0 base inoculation fluid and 0.9 mL of the tetrazolium dye “Biolog Redox Dye mix D”), resulting in a final cell density which was equal to 85% transmittance using a BioRad SmartSpec 3000 Photometer. For each of the acids tested, the microarray plate (obtained from the supplier (Biolog Inc.) with acid already present in the relevant wells in powder form) was directly inoculated with 100 μL/well of this 85% transmittance cell suspension.
(§3) All plates were incubated in an anaerobic atmosphere at 37° C. Color changes were measured spectrophotometrically at 492 nm (Thermo Scientific Multiskan Ascent) at 24 hrs and 48 hrs using the same plate at both time points.
(§4) The controls were also carried out three times, as above.

The test system of assay [2] is Capnocytophaga sputigena. Kind of assay: Metabolic activity, Biolog phenotype microarray. As to conditions: C sputigena. The method, then:
as §1, §2, §3, §4

Assay [3] deals with Fusobacterium nucleatum. Description: Metabolic activity, Biolog phenotype microarray. As to conditions: F nucleatum. The method, then: as §1, §2, §3, §4
Assay [4] has as its system Streptococcus mitis. Description: Metabolic activity, Biolog phenotype microarray. The settings on record: S mitis. The method, then: as §1, §2, §3, §4
For assay [5], the system named is Streptococcus sobrinus. Kind of assay: Metabolic activity, Biolog phenotype microarray. The settings on record: S sobrinus. On the procedure: as §1, §2, §3, §4
Assay [6] deals with Porphyromonas gingivalis. Kind of assay: Metabolic activity, Biolog phenotype microarray. As to conditions: P gingivalis. The method, then: as §1, §2, §3, §4
Assay [7] relates to Streptococcus gordonii. Kind of assay: Metabolic activity, Biolog phenotype microarray. As to conditions: S gordonii. The method, then:
as §1, §2, §3, §4

Assay [8] concerns Tannerella forsythia. Kind of assay: Metabolic activity, Biolog phenotype microarray. The settings on record: T forsythia. On the procedure:
as §1, §2, §3, §4

Assay [9] relates to Streptococcus sanguinis. Kind of assay: Metabolic activity, Biolog phenotype microarray. As to conditions: S sanguinis. The method, then: as §1, §2, §3, §4
For assay [10], the system named is Prevotella intermedia. Kind of assay: Metabolic activity, Biolog phenotype microarray. As to conditions: P intermedia. On the procedure:
as §1, §2, §3, §4

Assay [11] deals with Actinomyces viscosus. Kind of assay: Metabolic activity, Biolog phenotype microarray. The settings on record: A viscosus. On the procedure:
as §1, §2, §3, §4

Assay [12] concerns Streptococcus mutans. Kind of assay: Metabolic activity, Biolog phenotype microarray. The settings on record: S mutans. The method, then:
as §1, §2, §3, §4

For assay [13], the system named is Aggregatibacter actinomycetemcomitans. Kind of assay: Metabolic activity, Biolog phenotype microarray. The settings on record: A actinomycetemcomitans. The method, then:
as §1, §2, §3, §4

Assay [14] concerns Actinomyces naeslundii. Description: Metabolic activity, Biolog phenotype microarray. The settings on record: A naeslundii. The method, then: as §1, §2, §3, §4
Assay [15] deals with Veillonella parvula. Description: Metabolic activity, Biolog phenotype microarray. The settings on record: V parvula. The method, then:
as §1, §2, §3, §4

In assay [16] the test system is Streptococcus salivarius. Description: Metabolic activity, Biolog phenotype microarray. The settings on record: S salivarius. The method, then:
as §1, §2, §3, §4

With `O=C(O)C[C@H](O)C(=O)O` [L-malic acid], the “prebiotic effect (metabolic activity)” value in [1] (24 hrs) is on record as “exhibited prebiotic effects”. Moreover, the “metabolic activity, OD at 492 nm divided by OD of control (control = 1)” value (from here on “metabolic activity, OD at 492 nm divided”) in [2] (24 hrs) stood at 0.8764; in [2] (48 hrs) it was 0.8870; in assay [3] (24 hrs), 0.8813; in assay [3] (48 hrs) it was 0.8215; in assay [4] (24 hrs), 0.9743; in [4] (48 hrs), 0.8207. The “metabolic activity, OD at 492 nm divided” value in assay [5] (24 hrs) was 1.0506; in [5] (48 hrs), 0.9898; in assay [6] (24 hrs) it was 0.8367; in assay [6] (48 hrs), 0.8279; in [7] (24 hrs), 0.9161; in assay [7] (48 hrs), 0.8652. The “metabolic activity, OD at 492 nm divided” value was found to be 0.9252 in assay [8] (24 hrs); 0.9462 in assay [8] (48 hrs); 0.8788 in assay [9] (24 hrs); 0.9018 in assay [9] (48 hrs); 0.9958 in assay [10] (24 hrs); 1.0146 in [10] (48 hrs). The “metabolic activity, OD at 492 nm divided” value is 0.9803 in assay [11] (24 hrs); 1.0090 in assay [11] (48 hrs); 0.9627 in [12] (24 hrs); 0.8760 in [12] (48 hrs); 1.6257 in assay [13] (24 hrs); 1.9196 in assay [13] (48 hrs). The “metabolic activity, OD at 492 nm divided” value in assay [14] (24 hrs) is on record as 0.9796; in assay [14] (48 hrs), 0.9086; in assay [15] (24 hrs), 2.0256; in [15] (48 hrs) it was 1.5012; in assay [16] (24 hrs) it was 0.9740; in assay [16] (48 hrs), 0.9426.
Regarding `COC(=O)CCC(=O)O` [Mono methyl succinate, mono methyl succinate], the “metabolic activity, OD at 492 nm divided” value was found to be 0.8328 in assay [2] (24 hrs); 0.9842 in assay [2] (48 hrs); 0.8349 in assay [3] (24 hrs); 0.7615 in assay [3] (48 hrs); 1.0231 in [4] (24 hrs); 0.9293 in assay [4] (48 hrs). In addition, the “metabolic activity, OD at 492 nm divided” value in assay [5] (24 hrs) was 0.9731; in [5] (48 hrs), 0.9118; in assay [6] (24 hrs), 0.7502; in assay [6] (48 hrs), 0.6747; in assay [7] (24 hrs), 0.8102; in assay [7] (48 hrs) it was 0.7556. Also, the “metabolic activity, OD at 492 nm divided” value is 0.8922 in assay [8] (24 hrs); 0.8775 in assay [8] (48 hrs); 0.8806 in [9] (24 hrs); 0.8453 in [9] (48 hrs); 1.0197 in assay [10] (24 hrs); 1.0603 in [10] (48 hrs). In addition, the “metabolic activity, OD at 492 nm divided” value in [11] (24 hrs) stood at 0.9911; in assay [11] (48 hrs) it was 1.0314; in [12] (24 hrs), 0.9482; in assay [12] (48 hrs), 0.8864; in assay [13] (24 hrs) it was 0.9321; in assay [13] (48 hrs) it was 1.0787. Also, the “metabolic activity, OD at 492 nm divided” value is 0.8880 in [14] (24 hrs); 0.8882 in assay [14] (48 hrs); 2.0008 in assay [15] (24 hrs); 2.0023 in [15] (48 hrs); 0.9553 in assay [16] (24 hrs); 0.8641 in assay [16] (48 hrs).
In the case of `CC(=O)O` [Acetic acid, acetic acid], in [1] (48 hrs), the “prebiotic effect (metabolic activity)” value is given as “exhibited prebiotic effects”.
With `O=C(O)[C@H](O)[C@@H](O)[C@H](O)[C@H](O)CO[C@H]1O[C@H](CO)[C@H](O)[C@H](O)[C@H]1O` [Melibionic acid, melibionic acid], in assay [1] (48 hrs), the “prebiotic effect (metabolic activity)” value is on record as “exhibited prebiotic effects”. The “metabolic activity, OD at 492 nm divided” value came out at 0.6213 in assay [2] (24 hrs); 0.9143 in assay [2] (48 hrs); 0.9131 in assay [3] (24 hrs); 0.8299 in [3] (48 hrs); 1.0443 in [4] (24 hrs); 0.9983 in assay [4] (48 hrs). The “metabolic activity, OD at 492 nm divided” value in assay [5] (24 hrs) worked out at 1.1366; in assay [5] (48 hrs), 1.1222; in [6] (24 hrs), 0.8689; in assay [6] (48 hrs) it was 0.9301; in assay [7] (24 hrs) it was 1.0326; in [7] (48 hrs) it was 0.9389. The “metabolic activity, OD at 492 nm divided” value in assay [8] (24 hrs) was determined as 1.0848; in assay [8] (48 hrs), 1.1865; in [9] (24 hrs), 1.0430; in assay [9] (48 hrs), 1.0832; in assay [10] (24 hrs) it was 1.0625; in assay [10] (48 hrs) it was 1.0988. The “metabolic activity, OD at 492 nm divided” value in [11] (24 hrs) was 1.6342; in [11] (48 hrs), 2.0904; in [12] (24 hrs), 1.1010; in assay [12] (48 hrs), 1.0362; in [13] (24 hrs) it was 0.9361; in assay [13] (48 hrs), 0.8912. The “metabolic activity, OD at 492 nm divided” value was 1.2539 in assay [14] (24 hrs); 1.3926 in [14] (48 hrs); 0.8685 in assay [15] (24 hrs); 0.6981 in assay [15] (48 hrs); 0.9984 in assay [16] (24 hrs); 0.9237 in assay [16] (48 hrs).

Values taken from patent US10945932B2, “Prebiotic oral care compositions containing carboxylic acids” (COLGATE-PALMOLIVE COMPANY, priority 2013, dated 2021).
